Some test systems named below: SF-539 CNS; SNB-75 CNS; NCI-H460 lung; M14 melanoma; MOLT-4 leukemia; SNB-19 CNS; K-562 leukemia; SK-MEL-28 melanoma; SR leukemia.
Common to all, as to assay: DTP human tumour cell line panel, 48 h

Structures are written as SMILES.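 Dose response: 5 concentrations. Exposure: 48 h. Format: 96-well plates. Endpoint: linear interpolation; highest concentration if not reached. GI50: concentration for 50% inhibition of growth. At the TGI there is no net growth.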 A value given as a limit tells only on which side of the number the result lay.

Take `COC(=O)C1=CC2OC13CC1CCC3(C2=O)C1(C)C` (stereo unspecified): the TGI in the assay on SF-539 CNS was 27.3 µM; in the assay with SNB-75 CNS it was 19.9 µM; in the assay on NCI-H460 lung, greater than 100 µM; with M14 melanoma, 28.3 µM; with MOLT-4 leukemia, 33.7 µM; in the assay on SNB-19 CNS, 52.3 µM. The TGI in the assay on K-562 leukemia came out at 56.4 µM.

For the compound `CCN(CC)c1ccc2c(c1)N=C1N=CC=CN1C2(c1ccc(N(C)C)cc1)c1ccc(N(C)C)cc1`, the TGI with SF-539 CNS was determined as 28.6 µM; with SK-MEL-28 melanoma, 26 µM; in the assay with SNB-75 CNS it was 24.4 µM; with NCI-H460 lung it was 22.2 µM; in the assay on M14 melanoma, 10.5 µM; with MOLT-4 leukemia it was 6.22 µM. For the same compound, the TGI in the assay with SNB-19 CNS came out at 24 µM; in the assay on SR leukemia, 12.9 µM; with K-562 leukemia, 5.96 µM.

On to `COc1ccccc1NC(=O)C1=C(C)NC(C)=C(C(=O)Nc2ccccc2OC)C1c1ccccc1OC`, for which the TGI in the assay on SF-539 CNS was greater than 100 µM; with SK-MEL-28 melanoma, greater than 100 µM; in the assay on SNB-75 CNS it was 69 µM; in the assay on NCI-H460 lung, greater than 100 µM; in the assay on M14 melanoma it was greater than 100 µM; in the assay on MOLT-4 leukemia, greater than 100 µM. Besides, the TGI in the assay with SNB-19 CNS, in the assay on SR leukemia and in the assay with K-562 leukemia was greater than 100 µM throughout.

On to `CC(=O)Nc1ccc(/C=C/C(=O)c2sc(C(N)=S)nc2C)cc1`, for which the TGI with SF-539 CNS, in the assay on SK-MEL-28 melanoma, with SNB-75 CNS, in the assay with NCI-H460 lung, with MOLT-4 leukemia and with K-562 leukemia was greater than 100 µM each time.

`CN=S(=O)(C[C@]1(O)CC2OC1C1OC(C)(C)OC21)c1ccccc1` (stereo partly specified): the TGI in the assay with SF-539 CNS, in the assay on SK-MEL-28 melanoma, in the assay with SNB-75 CNS, in the assay with NCI-H460 lung, in the assay with M14 melanoma and in the assay with MOLT-4 leukemia was greater than 100 µM in each case. Also, the TGI with SNB-19 CNS and in the assay with K-562 leukemia was greater than 100 µM in each case.

For `Cc1c(Cl)ccc2c1NC(=O)C2(O)C1Cc2ccccc2C1=O` (stereo unspecified), the TGI in the assay on SF-539 CNS, in the assay on SK-MEL-28 melanoma, in the assay on NCI-H460 lung, in the assay with M14 melanoma, in the assay with MOLT-4 leukemia and in the assay with SNB-19 CNS was greater than 100 µM throughout. Moreover, the TGI with SR leukemia and in the assay on K-562 leukemia was greater than 100 µM throughout.

Turning to `COC(=O)C(=O)C(C(=O)C(=O)Nc1cc([N+](=O)[O-])ccc1[N+](=O)[O-])c1nc2ccc(C(=O)c3ccccc3)cc2[nH]c1=O` (stereo unspecified), the TGI in the assay with SF-539 CNS is greater than 100 µM; with NCI-H460 lung it was greater than 100 µM; in the assay with M14 melanoma it was 98.8 µM; in the assay with MOLT-4 leukemia, 61.5 µM; in the assay with SNB-19 CNS it was greater than 100 µM; in the assay on SR leukemia, 60.2 µM. In the assay on K-562 leukemia, this compound gave a TGI of 91.3 µM.

For `O=C(C=Nc1ccccc1C(=O)[O-])c1cccs1.O=C(C=Nc1ccccc1C(=O)[O-])c1cccs1.[Cu+2]`, the TGI was greater than 100 µM in the assay on SK-MEL-28 melanoma; greater than 10 µM in the assay on SNB-75 CNS; greater than 100 µM in the assay with NCI-H460 lung; greater than 100 µM in the assay on M14 melanoma; greater than 100 µM in the assay on MOLT-4 leukemia; greater than 100 µM in the assay on SNB-19 CNS. In addition, the TGI in the assay on SR leukemia and in the assay with K-562 leukemia was greater than 100 µM in each case.

On to `CCC[CH2][Sn]([CH2]CCC)([S]C1=NCCS1)[S]C1=NCCS1`, for which the GI50 was 0.164 µM in the assay on SF-539 CNS; 0.146 µM in the assay with SK-MEL-28 melanoma; 0.0857 µM in the assay on SNB-75 CNS; 1.52 µM in the assay on NCI-H460 lung; 0.315 µM in the assay on M14 melanoma; 0.157 µM with MOLT-4 leukemia. Besides, the GI50 in the assay on SNB-19 CNS was 0.3 µM; in the assay on K-562 leukemia, 0.0655 µM. Besides, the TGI with SF-539 CNS is 0.449 µM; with SK-MEL-28 melanoma, 0.353 µM; in the assay on SNB-75 CNS, 1.39 µM; in the assay on NCI-H460 lung, 3.26 µM; in the assay on M14 melanoma it was 1.24 µM; in the assay on MOLT-4 leukemia, 0.732 µM. Moreover, the TGI worked out at 1.12 µM with SNB-19 CNS and 1.05 µM in the assay with K-562 leukemia.

Consider `O=C(CC1(O)C(=O)Nc2c(Cl)cc(Cl)cc21)c1ccc2ccccc2c1` (stereo unspecified), for which the TGI in the assay with SF-539 CNS was found to be 21 µM; in the assay on SK-MEL-28 melanoma, 24.3 µM; in the assay with SNB-75 CNS, 13.5 µM; in the assay on NCI-H460 lung, 18.1 µM; with M14 melanoma, 16.6 µM; in the assay on MOLT-4 leukemia, 27.8 µM. Also, the total growth inhibition concentration (TGI) came to 25.4 µM with SNB-19 CNS and 18.3 µM with K-562 leukemia.

With `CC12CC3CC(C)(C1)CC(N=[N+]=[N-])(C3)C2`, the total growth inhibition concentration (TGI) in the assay on SF-539 CNS, in the assay on SK-MEL-28 melanoma, in the assay on SNB-75 CNS, in the assay on NCI-H460 lung, in the assay on M14 melanoma and with MOLT-4 leukemia was greater than 100 µM throughout. Further, the TGI in the assay with SNB-19 CNS, with SR leukemia and in the assay with K-562 leukemia was greater than 100 µM each time.

Turning to `Cc1ccc(S(=O)(=O)N/N=C(\C(=O)Nc2cccc([N+](=O)[O-])c2)c2nc3ccc([N+](=O)[O-])cc3[nH]c2=O)cc1`, the TGI in the assay with SF-539 CNS, in the assay on SK-MEL-28 melanoma, in the assay with NCI-H460 lung, in the assay on M14 melanoma, in the assay on MOLT-4 leukemia and in the assay with SNB-19 CNS was greater than 100 µM each time. For the same compound, the TGI in the assay on SR leukemia and in the assay on K-562 leukemia was greater than 100 µM throughout.

Take `O=C1c2ccccc2C(=O)c2nc(-c3ccccc3)c(-c3ccccc3)nc21`: the TGI with SF-539 CNS was greater than 100 µM; in the assay with SK-MEL-28 melanoma, greater than 100 µM; with SNB-75 CNS, 29.2 µM; in the assay with NCI-H460 lung it was greater than 100 µM; in the assay on M14 melanoma, greater than 100 µM; in the assay on MOLT-4 leukemia, greater than 100 µM. In addition, the TGI with SNB-19 CNS and with K-562 leukemia was greater than 100 µM throughout.

Consider `O=C(CC(=O)C(F)(F)F)c1csc2ccccc12`, for which the TGI in the assay on SF-539 CNS was greater than 100 µM; with SK-MEL-28 melanoma, greater than 100 µM; in the assay with NCI-H460 lung, greater than 100 µM; in the assay with M14 melanoma, 68.9 µM; with MOLT-4 leukemia it was 72.3 µM; in the assay on SNB-19 CNS it was greater than 100 µM. The TGI was 50.1 µM in the assay on SR leukemia and greater than 100 µM in the assay with K-562 leukemia.

For `CC1C(=O)N(C)C2(CO)C(=O)O[C@H](C)C12O` (stereo partly specified), the TGI in the assay with SF-539 CNS, in the assay with SK-MEL-28 melanoma, in the assay on M14 melanoma, in the assay on MOLT-4 leukemia, in the assay on SNB-19 CNS and in the assay on SR leukemia was greater than 100 µM each time. Besides, the TGI in the assay on K-562 leukemia was greater than 100 µM.

The TGI is the concentration at which net growth stops. What is called GI50 is the concentration giving 50% growth inhibition.

For the origin of these results see PubChem BioAssay (NCI).
